The text below walks through data of PubChem BioAssay AID179 (DTP/NCI, 2004).

The structures appear in SMILES notation. Active and inactive are the calls of the source.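 Rule for the calls: active = compounds giving half or more protection of infected cells from virus-caused growth loss, again on retest; inactive = the rest.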 Where a SMILES comes first, the peptide text is derived from it. The star is where a group is joined. Cbz = O=C(OCc1ccccc1)*

What is called EC50 is the concentration that produces a half-maximal response. In general, IC50 refers to the concentration at which inhibition is half-maximal.

This assay has as its system CEM cells HIV-1 protection, formazan growth assay. Put plainly: NCI AIDS Antiviral Assay. Particulars: for IC50: measured here: growth of uninfected CEM cells. The method, boiled down: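 Five concentrations of each compound were applied to infected and uninfected human CEM cells. Protection from HIV-1 was judged from growth measured with a soluble formazan assay.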

Turning to `COc1ccccc1C1C(Cl)C(=O)N1NC(=O)Cc1ccccc1` (stereo not given), the EC50 is more than 39.8 µM and the 50% inhibitory concentration (IC50) is more than 39.8 µM.

As to `O=C(Nc1ccc(C2=NC3CCCCC3N2)cc1)c1ccc(C(=O)Nc2ccc(C3=NC4CCCCC4N3)cc2)cc1` (stereo not given), the EC50 is more than 200 µM and the IC50 was found to be 9.33 µM.

As to `O=C(O)c1ccccc1/C=C1/Cc2ccc3c(c2C1=O)CCC3`, the result was inactive.

On to `Cc1ccc(NC(=O)CC2SC(=Nc3ccc(Cl)cc3)NC2=O)cc1C` (stereo not given), for which the EC50 was more than 51.3 µM and the half-inhibitory concentration (IC50) is more than 51.3 µM.

For `O=C(Oc1ccc(OC(Oc2ccccc2)c2ccccc2)cc1)c1ccccc1` (stereo not given), the EC50 was more than 200 µM and the half-inhibitory concentration (IC50) came to 44.7 µM.

`CN1c2ccccc2N(C)C2C1N(C)c1ccccc1N2C` (stereo not given): the EC50 is more than 64.6 µM and the IC50 was 11 µM.

In the case of `Cc1ccc(OP2(=O)Nc3ccccc3S2)cc1` (stereo not given), the EC50 was more than 468 µM and the IC50 amounted to 25.7 µM.

In the case of `CC(=O)Nc1ccc(/C=C2\SC(=S)N(/C=C(/C#N)S(=O)(=O)c3ccc(C)cc3)C2=O)cc1`, the EC50 was more than 200 µM and the IC50 was 74.1 µM.

As to `CN(C)CCN1CCC(Cc2ccccc2)CC1`, the EC50 was more than 200 µM and the concentration for half-maximal inhibition (IC50) stood at 72.4 µM.

Consider `CC1=NN(c2ccccc2)C(=O)/C1=C\N1CC(=O)NC1=S`, for which the EC50 was more than 200 µM and the IC50 was found to be 87.1 µM.

In the case of `CC1=NN(c2ccccc2)C(=O)C1=Nc1c(C)[nH]n(-c2ccccc2)c1=O`, the EC50 is more than 200 µM and the IC50 is more than 200 µM.

Take `CSc1nc(NC2OC(CO)C(O)C(O)C2O)cc(=O)n1C` (stereo not given): the result was inactive.

As to `OC[C@H]1S[C@H](c2ccccc2)C[C@H]1O`, the EC50 is more than 200 µM and the IC50 is more than 200 µM.

On to `Cc1ccc(S(=O)(=O)NC(=O)NC2=NC(C)(C)N(c3ccc(Cl)c(Cl)c3)C(N)=N2)cc1`, for which the EC50 was more than 200 µM and the IC50 stood at 4.27 µM.

Consider `O=C(O)c1ccc(S(=O)(=O)c2cccc([N+](=O)[O-])c2)cc1`, for which the EC50 is more than 200 µM and the IC50 is more than 200 µM.

As to `O=C(O)C(CSC(c1ccccc1)(c1ccccc1)c1ccccc1)N=Cc1cccs1` (stereo not given), the EC50 was more than 200 µM and the 50% inhibitory concentration (IC50) was 2.04 µM.

In the case of `CC1CC(C)CC(C)C(O)/C(C#N)=C/C=C/CC(C2CCCC2C(=O)O)OC(=O)CC(O)C(C)C1` (stereo not given), the EC50 is more than 2.57 µM and the IC50 came out at 0.00575 µM.

Take `O=C(Nc1ccc(Br)cc1)C(=O)C(C(=O)c1ccccc1F)C1OC(=O)c2ccccc21` (stereo not given): the EC50 was more than 263 µM and the IC50 was found to be 35.5 µM.

`N#C[C@@]12CCCC(=O)[C@@H]1[C@H]1CCC[C@H]12`: the EC50 is more than 200 µM and the IC50 stood at 77.6 µM.

As to `CC(=O)NNc1nc(C)c(C(/C=C/c2ccc(Cl)cc2)=N\NS(=O)(=O)c2ccc(C)cc2)s1`, the EC50 is more than 2.88 µM and the IC50 is more than 2.88 µM.

Regarding `CC(=O)Nc1ccc(C(=O)NN2C(=O)C(Cl)C2c2cc(Br)cc(Br)c2O)cc1` (stereo not given), the outcome was inactive.

Turning to `O=C1CN(CCO)CC(=O)N2Cc3ccccc3CN12`, the result was inactive.

In the case of `Cc1nc2c(Br)cc(Br)cc2c(=O)n1-c1ccccc1N`, the EC50 is more than 200 µM and the IC50 came to 67.6 µM.

With `CN[C@H]1CCc2cc(OC)c(OC)c(OC)c2-c2ccc(OC)c(=O)cc21`, the outcome was inactive.

For `O=c1[nH]nc(Cc2ccccc2)n1/N=C\c1ccccc1`, the EC50 was more than 200 µM and the IC50 is more than 200 µM.

Take `O=C1C2CCSCN2C(=O)N1c1ccccc1` (stereo not given): the EC50 was more than 40.7 µM and the IC50 was more than 40.7 µM.

Regarding `OCC(O)c1cc(I)c(Oc2ccc(O)cc2)c(I)c1` (stereo not given), the EC50 was more than 200 µM and the IC50 was more than 200 µM.

Consider `O=c1c2nn3c(=O)n(-c4ccc(Cl)cc4)c(=O)c3nn2c(=O)n1-c1ccc(Cl)cc1`, for which the EC50 was more than 200 µM and the half-inhibitory concentration (IC50) is more than 200 µM.

For the molecule `CSc1nc(C#N)c(/N=C\N(C)C)n1C`, the EC50 was more than 200 µM and the IC50 is more than 200 µM.

For `Cc1cccc(/C=N/NC(=S)NC2CCCCC2)n1`, the EC50 was more than 200 µM and the IC50 stood at 10 µM.

As for `Cn1c(=O)c(C2c3ccccc3Oc3c2c(=O)n(C)c2ccccc32)c(O)c2ccccc21` (stereo not given), the EC50 is more than 16.6 µM and the IC50 is more than 16.6 µM.

Consider `C(#CP(c1ccccc1)c1ccccc1)P(c1ccccc1)c1ccccc1.C(#CP(c1ccccc1)c1ccccc1)P(c1ccccc1)c1ccccc1.C(#CP(c1ccccc1)c1ccccc1)P(c1ccccc1)c1ccccc1.C(#CP(c1ccccc1)c1ccccc1)P(c1ccccc1)c1ccccc1.[Pt].[Pt]`, for which the EC50 is more than 6.92 µM and the IC50 was determined as 4.79 µM.

For the molecule `CCCCCCCCCCCCCCCCCCC(C(=O)O)C(=O)O`, the EC50 was more than 708 µM and the IC50 is 347 µM.

With `FC(F)C(F)(F)N1c2ccccc2Sc2ccccc21`, the EC50 is more than 200 µM and the IC50 was 72.4 µM.

In the case of `COC(=O)C(NC(=O)C(C)NC(=O)C1CCCN1C(=O)CNC(=O)C(CO)NC(=O)C(NC(=O)OCc1ccccc1)C(C)O)C(C)O` (stereo not given) (Cbz-TSGPAT-OMe; configuration not given here), the EC50 was more than 363 µM and the IC50 is more than 363 µM.

Turning to `Cc1c(C(=O)O)n2c(C)nnc2c2ccccc12`, the EC50 was more than 200 µM and the IC50 was more than 200 µM.

`O=C(N[C@H](CO)[C@H](O)c1ccc([N+](=O)[O-])cc1)C(Cl)Cl`: the EC50 is more than 200 µM and the IC50 was more than 200 µM.

As to `O=[N+]([O-])/C=C(\CS(=O)(=O)c1ccccc1)c1ccc2c(c1)OCO2`, the EC50 is more than 81.3 µM and the IC50 is 31.6 µM.

With `COc1ccc(/C=C(\C#N)c2ccc(OC)cc2)cc1`, the EC50 was more than 200 µM and the IC50 amounted to 8.13 µM.

Take `COc1cc2c(cc1O)CC[n+]1cc3c(OC)c(OC)ccc3cc1-2`: the EC50 was more than 182 µM and the IC50 is more than 182 µM.

Turning to `O=C(Nc1ccccc1-c1nn(C(=S)Nc2ccccc2)c(=S)n(C(=S)Nc2ccccc2)c1=O)C(F)(F)F`, the outcome was inactive.

For `CC(C)(NC1=NCCO1)c1ccccc1`, the EC50 was more than 200 µM and the IC50 is more than 200 µM.

For `C[S+]1Cc2nc3ccccc3n2C1c1c(F)cccc1F` (stereo not given), the EC50 is more than 178 µM and the IC50 is 79.4 µM.

With `CCOC(=O)C1C(c2ccc(Cl)cc2Cl)NC(c2ccc(C)cc2)C(C(=O)OC)S1(=O)=O` (stereo not given), the EC50 was more than 14.5 µM and the IC50 is more than 14.5 µM.

For the molecule `Clc1ccc(CNNCc2cccc(Cl)c2)cc1`, the EC50 was more than 200 µM and the half-inhibitory concentration (IC50) stood at 102 µM.

Consider `O=C1CCC2(CC1CCS(=O)c1ccccc1)OCCO2` (stereo not given), for which the EC50 was more than 200 µM and the IC50 is more than 200 µM.

As for `Cc1nn[n-]n1.N.N.N.N.N.[Cl-].[Co+3]`, the EC50 was more than 832 µM and the IC50 is more than 832 µM.

Regarding `N=C(c1ccc(-c2cn3cc(C(=N)N4CCCC4)ccc3n2)cc1)N1CCCC1`, the EC50 was 148 µM and the IC50 is more than 200 µM.

Turning to `O=CN/C=C/c1ccccc1O`, the EC50 is more than 200 µM and the IC50 was more than 200 µM.

As to `O=C(/C=C/c1ccc(O)c(O)c1O)OCCc1ccccc1`, the EC50 is more than 200 µM and the half-inhibitory concentration (IC50) amounted to 2.34 µM.

As to `Nc1ccc[nH]c1=O`, the EC50 is more than 234 µM and the IC50 was more than 234 µM.

In the case of `COC(=O)[C@H](Cc1c[nH]c2ccccc12)NC(=O)OCC1OC(n2cc(C)c(=O)[nH]c2=O)CC1N=[N+]=[N-]` (stereo not given in full), the EC50 was more than 158 µM and the IC50 came out at 132 µM.

In the case of `CN(C)C(=N)CSS(=O)(=O)O`, the EC50 is 120 µM and the concentration for half-maximal inhibition (IC50) came out at 182 µM.

Regarding `COc1cc2c(c(OC)c1OC)-c1ccc(SC)c(=S)cc1[C@@H](NC(C)=O)CC2`, the outcome was inactive.

The molecule `CCN(CC)c1ccc2c(c1)Oc1cc(N(CC)CC)ccc1C2c1ccccc1C(=O)O` had an EC50 of more than 200 µM and an IC50 of more than 200 µM.

As for `COc1ccc2[nH]c(C(O)(Cc3cccnc3)Cc3cccnc3)cc2c1`, the EC50 was 191 µM and the IC50 was more than 200 µM.

For the molecule `CC1=N/C(=C\c2ccc(Br)cc2)C(=O)O1`, the EC50 was more than 135 µM and the IC50 is more than 135 µM.

With `CC(C)(C)OC(=O)C1/C(=C/CO)CN1C(=O)OC(C)(C)C` (stereo not given), the EC50 is more than 200 µM and the IC50 was found to be 43.7 µM.

Regarding `CC(=O)NC(CCCCNC(=O)N(C)N=O)C(=O)NCc1ccccc1` (stereo not given), the EC50 was more than 692 µM and the IC50 came out at 141 µM.

In the case of `CCCCC(C)CCC(=O)C1=C(O)C(CC(=O)O)OC1=O` (stereo not given), the EC50 was more than 83.2 µM and the IC50 was more than 83.2 µM.

Turning to `Nc1ncnc2c1ncn2C(Cl)=C(Cl)Cl`, the EC50 was more than 200 µM and the IC50 came to 115 µM.

Take `Cc1nc2c3c(ccc2[nH]c1=O)C(=O)c1ccccc1C3=O`: the outcome was inactive.

With `O=C(OC1CCCCC1)c1cc(NC(=S)c2ccsc2)ccc1Cl`, the EC50 was 0.141 µM and the IC50 came to 11.2 µM.

Regarding `Brc1ccc2c(C3CN[C@@H](c4c[nH]c5cc(Br)ccc45)CN3)c[nH]c2c1` (stereo not given in full), the EC50 is more than 100 µM and the IC50 came to 4.57 µM.

`COC(=O)CCC(=O)c1ccc2c(c1)CC1(Cc3ccccc3C1)C2`: the EC50 is more than 200 µM and the IC50 turned out to be 46.8 µM.

Regarding `Cc1cc(OC(=O)NCn2cc(-c3ccccc3)nn2)ccc1Cl`, the EC50 is more than 200 µM and the half-maximal inhibitory concentration (IC50) was found to be 95.5 µM.

For the molecule `CCOC(=O)c1sc2nc(SC)nc3c2c1N=CN3c1ccc(Br)cc1`, the outcome was inactive.

As to `CC(C)N(CC(OC(=O)OC(C)(C)C)c1cc(OCc2ccccc2)c(OCc2ccccc2)cc1[N+](=O)[O-])C(=O)OC(C)(C)C` (stereo not given), the EC50 was more than 100 µM and the IC50 amounted to 30.2 µM.

As for `CCc1n[nH]c(=O)n1O`, the EC50 was more than 200 µM and the IC50 was more than 200 µM.

For the molecule `O=P(c1ccccc1)(c1ccccc1)P(=O)(c1ccccc1)c1ccccc1`, the EC50 was more than 200 µM and the IC50 is more than 200 µM.

As for `O=c1[nH]c2cc(C(F)(F)F)ccc2nc1CBr`, the EC50 is more than 200 µM and the IC50 is 6.61 µM.

As to `O=C1C(=O)c2ccccc2C(O)=C1C(/C=C/c1ccccc1)C1=C(O)c2ccccc2C(=O)C1=O`, the EC50 was more than 200 µM and the IC50 came to 9.55 µM.
